Patent US20230087609A1, “USE OF A SOLUBLE GUANYLATE CYCLASE (sGC) STIMULATOR OR OF A COMBINATION OF A sGC STIMULATOR AND AN sGC ACTIVATOR FOR CONDITIONS WHEREIN THE HEME GROUP OF sGC IS OXIDIZED OR WHEREIN sGC IS DEFICIENT IN HEME” (Universiteit Maastricht, priority 2020, published 2023)

Key:
[1] = molecular target: T1, apo-sGC (sGCβ1 H105F knock-in) (Mus musculus, UniProt O54865, H105F); assay: sGC activity in lung homogenates of apo-sGC mice; type: biochemical
T1 construct: from tissue; host or cells: lung homogenate of homozygous sGCβ1 H105F knock-in mice
T1 sequence (O54865 1-620 H105F): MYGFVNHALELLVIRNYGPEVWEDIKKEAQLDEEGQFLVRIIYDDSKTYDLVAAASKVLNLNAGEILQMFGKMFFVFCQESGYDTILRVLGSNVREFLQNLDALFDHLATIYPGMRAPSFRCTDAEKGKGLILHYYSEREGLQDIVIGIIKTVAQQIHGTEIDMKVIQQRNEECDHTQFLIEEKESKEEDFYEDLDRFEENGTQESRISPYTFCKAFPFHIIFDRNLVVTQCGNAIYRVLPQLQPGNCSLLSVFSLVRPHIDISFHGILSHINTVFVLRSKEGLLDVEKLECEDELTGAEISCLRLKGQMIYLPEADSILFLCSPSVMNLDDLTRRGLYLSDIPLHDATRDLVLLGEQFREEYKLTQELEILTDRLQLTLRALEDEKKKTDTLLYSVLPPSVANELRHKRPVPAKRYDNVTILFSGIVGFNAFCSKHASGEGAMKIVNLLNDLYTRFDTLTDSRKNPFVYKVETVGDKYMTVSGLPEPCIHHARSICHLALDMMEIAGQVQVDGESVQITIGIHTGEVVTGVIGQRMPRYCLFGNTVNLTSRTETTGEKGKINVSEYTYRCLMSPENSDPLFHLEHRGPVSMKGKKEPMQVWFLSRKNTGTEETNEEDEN
T1 sequence (Q9ERL9 1-691 partner): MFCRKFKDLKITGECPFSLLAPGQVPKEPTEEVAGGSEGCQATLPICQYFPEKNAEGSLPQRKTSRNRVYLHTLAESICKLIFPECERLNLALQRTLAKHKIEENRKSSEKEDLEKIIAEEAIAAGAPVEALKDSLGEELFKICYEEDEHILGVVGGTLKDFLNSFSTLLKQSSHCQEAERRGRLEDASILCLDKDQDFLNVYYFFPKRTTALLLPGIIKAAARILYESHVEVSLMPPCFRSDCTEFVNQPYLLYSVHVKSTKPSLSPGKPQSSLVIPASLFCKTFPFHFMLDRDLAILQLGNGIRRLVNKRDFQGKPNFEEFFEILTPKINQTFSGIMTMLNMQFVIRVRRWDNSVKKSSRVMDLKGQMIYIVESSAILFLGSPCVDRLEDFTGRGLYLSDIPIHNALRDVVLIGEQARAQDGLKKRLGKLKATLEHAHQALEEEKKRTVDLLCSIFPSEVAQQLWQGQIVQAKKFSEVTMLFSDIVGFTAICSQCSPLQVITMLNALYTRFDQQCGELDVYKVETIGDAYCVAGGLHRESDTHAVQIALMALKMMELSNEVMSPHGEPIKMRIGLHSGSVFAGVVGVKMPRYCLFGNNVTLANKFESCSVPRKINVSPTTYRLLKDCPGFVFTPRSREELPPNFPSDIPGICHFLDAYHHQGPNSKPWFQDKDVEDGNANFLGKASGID
Protocol: Adult male Sprague Dawley (SD) rats (age, 10-12 weeks) were obtained from Animal Resources Centre (Western Australia). Animals were housed on a 12 hour day/night cycle at a room temperature of 20±2° C., in the Department of Pharmacology Animal House, Monash University. The animals were fed standard rodent chow and water was available ad libitum. Homozygous male sGC(1^H105F knock-in mice (“apo-sGC mice”) were kindly provided by Tufts Medical Center, Molecular Cardiology Research Center, Boston, Mass., USA (Toonen et al., Nat Commun. 2015; 6:8482. doi: 10.1038/ncomms9482).
To measure sGC activity, cells were stimulated with 250 μM DEA/NO or 10 μM BAY58-2667 for 3 min at 37° C. Thereafter, cells were immediately lysed in 80% ethanol. Cells were scraped and, after evaporation of ethanol, re-suspended in assay buffer and sonicated. Measurement of sGC activity in crude homogenates of mouse tissue was performed as previously described (Nedvetsky et al., Brain Res. 2002; 950(1-2):148-154. doi: 10.1016/50006-8993(02)03015-9).[9] Briefly, all samples were measured as the formation of cGMP at 37° C. during 10 min in a total incubation volume of […] containing 50 mM triethanolamine-HCl (pH 7.4), 3 mM MgCl2, 3 mM glutathione (Carl Roth, Karlsruhe, Germany), 1 mM IBMX, […], 5 mM creatine phosphate, 0.25 mg/ml creatine kinase and 1 mM or 0.5 mM GTP. After adding sGC activator in the absence or presence of the sGC stimulator the reaction was started by application of GTP solution. Following incubation of each sample for 10 min the reaction was stopped by boiling for 10 min at 95° C. Thereafter the amount of cGMP was subsequently determined by a commercial enzyme immunoassay kit (Enzo Life Sciences, Lorrach, Germany or Biotrend, Cologne, Germany). In some experiments pre-incubation of freshly homogenized tissue with ODQ at 37° C. for 20 min prior measuring sGC activation was required.

[2] = test system: isolated rat mesenteric arteries; assay: Relaxation of isolated rat mesenteric arteries (myograph)
Source text: The animals were killed humanely via CO2 inhalation (95% CO2, 5% O2) followed by cervical dislocation and exsanguination. The required tissues were dissected and placed in ice-cold oxygenated Krebs' solution (composition in mM: NaCl 119, KCl 4.7, MgSO4 1.17, NaHCO3 25, KH2PO4 1.18, CaCl2 2.5, glucose 5.5, EDTA 0.026, pH 7.4). The collected arteries were carefully freed of fat and connective tissue and cut into 2 mm rings.
The segments were then mounted in a small vessel myograph for the measurement of changes in isometric tension. Two 40 μm stainless steel wires were inserted through the lumen of the segment, one attached to an isometric force transducer and the other to a support driven by a micrometer. The vessels were maintained in Krebs' solution at 37° C. in 7 ml myograph chambers and were continuously bubbled with carbogen (95% O2, 5% CO2). Arteries were allowed to equilibrate for a 30 min period under zero force after which their internal diameter was normalised to an equivalent transmural pressure of 100 mmHg. Changes in isometric tension were reordered using a Myograph Interface Model 610 M version 2.2 (AD Instruments, Pty Ltd) and a chart recorder (Yokogawa, Japan), or using a MacLab® (MacLab® data-acquisition system, AD Instruments Pty Ltd.), interfaced with a Macintosh Computer. Following the 30 min equilibration period at optimal resting tension, the vessels were contracted maximally using a potassium depolarising KPSS solution (composition in mM: KCl 123, MgSO4 1.17, KH2PO4 2.37, CaCl2 2.5, glucose, 5.5 and EDTA 0.026). After the maximum contraction reached a plateau, the vessels were washed thoroughly using Krebs' solution and the tension allowed to return to the baseline. The vessels were then pre-contracted to ≈50% maximum contraction using titrated concentration of the thromboxane A2 mimetic U46619 (0.1-100 nM) and a titrated concentration of the al agonist cirazoline (1-100 nM). Subsequently, cumulative (0.5 log unit) concentration response curve to BAY 58-2667 (1 pM-0.1 μM) were constructed in the presence and absence of 100nM BAY 41-2272 (100 nM). All treatments used in our study including the pre-incubation with 10 μM ODQ for 30 min were added before the 50% pre-contraction with cirazoline and U46619 and only one concentration response curve to any vasodilator was constructed in each segment of the blood vessel. At the completion of each concentration response curve, maximal relaxation was achieved by adding nifedipine 10 μM.
Results are expressed as mean±s.e.m, with n representing the number of samples used from separate subjects. Statistical significance was accepted at the P<0.05 level. Relaxation responses to BAY58-2667 were expressed as a percentage reversal of the level of pre-contraction to U46619, with the response to nifedipine 10 μM defined as 100% relaxation. The individual response curves obtained for each vasodilator were fitted using non-linear regressions (Graphpad Prism®, version 5). In-vitro experiments have been performed with n=3 and n=1. Maximal relaxation values (%) at specific concentrations of the compounds were compared. For multiple comparisons, student's t-test or one-way analysis of variance (ANOVA) was followed by Bonferroni's test. • The results of our experiments are represented by the following non-limiting examples.

[3] = test system: C57B16/J mice, transient occlusion of the middle cerebral artery (tMCAO); assay: tMCAO ischemia model, infarct size; type: in vivo, mouse; settings: 0.1 mg/kg i.p. 1 h after reperfusion; 1 h tMCAO, 24 h reperfusion; versus non-treated animals (FIG. 10)
Protocol: C57B16/J mice were anesthetized with isoflurane (0.6% in oxygen). The animal was placed on a heating-pad, and rectal temperature was maintained at 37.0° C. Transient cerebral ischemia was induced using an intraluminal filament technique. Using a surgical microscope (Tecnoscopio OPMI pico, Carl Zeiss, Meditec Iberia SA, Spain), a midline neck incision was made and the right common and external carotid arteries were isolated and permanently ligated. A microvascular temporarily ligature was placed on the internal carotid artery to temporarily stop the blood flow. A silicon rubber-coated monofilament (6023910PK10, Doccol, USA) was inserted through a small incision into the common carotid artery and advanced into the internal carotid artery until a resistance is felt. […]
After sacrificing the mice, brains were quickly removed and cut in four 2-mm thick coronal sections using a mouse brain slice matrix (Harvard Apparatus, USA). […] Indirect infarct volumes were calculated by volumetry (ImageJ software, National Institutes of Health, USA) according to the following equation: Vindirect (mm^3)=Vinfarct×(1−(Vih−Vch)/Vch), where the term (Vih−Vch) represents the volume difference between the ischemic hemisphere and the control hemisphere and (Vih−Vch)/Vch expresses this difference as a percentage of the control hemisphere.

effect of BAY 58-2667 on sGC activity in the presence of BAY 41-2272 ([1]; 0.3 μM BAY 58-2667 + 10 μM BAY 41-2272, fold stimulation versus basal activity (FIG. 1))	sGC activity, response to compound alone ([1]; lung homogenates of apo-sGC mice, compound alone)	potentiation of BAY 58-2667 by BAY 41-2272 ([1]; lung homogenates of apo-sGC mice, maximal efficiency in the nano-molar range)	SMILES	maximal relaxation, BAY 58-2667 combined with BAY 41-2272 ([2]; 0.0003 μM BAY 58-2667 + 0.1 μM BAY 41-2272 (FIG. 2))	maximal relaxation, BAY 58-2667 combined with BAY 41-2272 ([2]; 0.001 μM BAY 58-2667 + 0.1 μM BAY 41-2272 (FIG. 3))	maximal relaxation, BAY 58-2667 combined with BAY 41-2272 ([2]; 0.003 μM BAY 58-2667 + 0.1 μM BAY 41-2272 (FIG. 4))	infarct size / infarct volume [3]
potentiated	fully responsive	potentiation	O=C(O)CCCCN(CCc1ccccc1OCc1ccc(CCc2ccccc2)cc1)Cc1ccc(C(=O)O)cc1 [BAY 58-2667]	Super-additive effects	Super-additive effects	Super-additive effects	–
–	–	–	COC(=O)N(C)c1c(N)nc(-c2nn(Cc3ccccc3F)c3ncccc23)nc1N [BAY 63-2521, riociguat]	–	–	–	reduces infarct size
